This note sets out measurements from PubChem BioAssay (NCI).

What all share (assay): NCI-60 cell line screen, 48 h
In assay [1] the test system is NCI-H226 lung.
Assay [2] concerns MDA-MB-435.
For assay [3], the system named is HL-60(TB) leukemia.
Assay [4] deals with HOP-62 NSCLC.
Assay [5] deals with NCI/ADR-RES ovarian.
Assay [6] deals with PC-3 prostate.
Assay [7] has as its system SN12C renal.
Assay [8] relates to 786-0 renal.
Assay [9] has as its system OVCAR-5 ovarian.
Assay [10] relates to UACC-62 melanoma.
In assay [11] the test system is HCC-2998 colon.
In assay [12] the test system is TK-10 renal.

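Following 48 hours of exposure in 96-well plates, responses at five concentrations were used to interpolate endpoints linearly. The concentration for full growth arrest is given as TGI.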

Take `O=C(Nc1nc(C23CC4CC(CC(C4)C2)C3)cs1)c1cc2cc(Br)cc(Br)c2oc1=O`: the TGI in assay [1], in [2], in assay [3], in assay [4], in [5] and in assay [6] was over 100 µM in each case. Besides, the TGI in assay [7], in assay [8], in [9], in assay [10], in assay [11] and in assay [12] was over 100 µM each time.

In the case of `Cc1ccc(S(=O)(=O)NNC(=S)Nc2cccc3ccccc23)cc1`, the TGI in assay [1] is 95.2 µM; in assay [2], over 100 µM; in [3], over 100 µM; in assay [4], over 100 µM; in assay [5] it was over 100 µM; in assay [6] it was over 100 µM. Besides, the TGI in assay [7], in assay [8], in assay [9], in [10], in [11] and in assay [12] was over 100 µM in each case.

For the compound `CN(C)CCNc1ccc2c(=O)n(CCN(C)C)c(=O)n3c4ccc(N)cc4c(=O)c1c23`, the TGI in assay [1] was 0.573 µM; in assay [2], 0.273 µM; in [3], 0.278 µM; in assay [4], 1.15 µM; in assay [5], 2.28 µM; in [6], 0.477 µM. For the same compound, the TGI in assay [7] amounted to 0.306 µM; in assay [8] it was 1.18 µM; in assay [9], 0.844 µM; in [10], 1.21 µM; in assay [11] it was 0.809 µM; in assay [12] it was 6.13 µM.

On to `O=C1/C(=C\c2cccc(Oc3ccccc3)c2)SC(c2ccccc2)N1c1ccc(Cl)cc1` (configuration not stated), for which the TGI in assay [1] was over 100 µM; in assay [2] it was over 64.3 µM; in assay [3], over 100 µM; in [4], over 100 µM; in assay [5], over 100 µM; in assay [6], over 100 µM. Moreover, the TGI in assay [7], in [8], in [9], in [10], in assay [11] and in assay [12] was over 100 µM throughout.

`CCN(CC)CCS(=O)c1c2cc(OC)ccc2nc2ccc(OC)cc12` (configuration not stated): the TGI is 39.5 µM in [1]; 26.6 µM in [2]; over 100 µM in assay [3]; 44.8 µM in [4]; 52.6 µM in assay [5]; 26.9 µM in assay [6]. Also, the TGI was 9.64 µM in [7]; 4.35 µM in assay [8]; 36.1 µM in assay [9]; 36.8 µM in assay [10]; 40.7 µM in [11]; 11.7 µM in [12].

Consider `O=C(CCCn1ccnc1[N+](=O)[O-])NCCn1ccnc1`, for which the TGI in [1], in [2], in assay [3], in assay [4], in [5] and in [6] was over 100 µM each time. For the same compound, the TGI in [7], in assay [8], in assay [9], in assay [10], in assay [11] and in [12] was over 100 µM each time.

For the compound `O=C(O)CN1CCN(CC(=O)O)CCN(CC(=O)O)CCN(CC(=O)O)CC1`, the TGI in [1], in [2], in [3], in assay [4], in assay [5] and in assay [6] was over 100 µM throughout. Besides, the TGI in assay [7], in assay [8], in assay [9], in assay [10], in assay [11] and in assay [12] was over 100 µM each time.

As to `COc1ccc(OC)c2nc3c(C(=O)NCCN(C)C)cccc3nc12`, the TGI in [1] is 27.5 µM; in assay [2], 17.5 µM; in assay [3], 16.5 µM; in [4] it was 35.7 µM; in assay [5], over 61.1 µM; in assay [6], 17.9 µM. The TGI is over 36.1 µM in assay [7]; over 76.3 µM in assay [8]; over 78.2 µM in assay [9]; over 49.3 µM in assay [10]; 13.4 µM in [11]; 46.8 µM in assay [12].

On to `[N-]=[N+]=Nc1ccc2c(c1)Sc1ccccc1N2CCCCCl`, for which the TGI in [1] is over 100 µM; in assay [2], over 100 µM; in assay [3], 64.3 µM; in [4], over 100 µM; in assay [5] it was over 100 µM; in assay [6], over 100 µM. In addition, the TGI in assay [7], in assay [8], in assay [9], in assay [10], in [11] and in assay [12] was over 100 µM in each case.

As for `CC1=C(OC2OC(CO)C(O)C(O)C2O)C(=O)C[C@H]2C1=CC[C@@H]1[C@@]2(C)C(=O)C[C@]2(C)[C@@H]([C@@](C)(O)C(=O)CCC(C)(C)O)[C@H](O)C[C@@]12C` (some centres not stated), the TGI in assay [1], in assay [2], in [3], in [4], in assay [5] and in [6] was over 100 µM in each case. In addition, the TGI in assay [7], in assay [8], in assay [9], in [10], in assay [11] and in assay [12] was over 100 µM in each case.

With `CCCCCCCCCCCCCCCCP(=O)(O)OP(=O)(O)OCC1OC(n2cnc3c(N)ncnc32)C(O)C1O` (configuration not stated), the TGI in [1] is 39.6 µM; in assay [2], 96.7 µM; in assay [3], over 100 µM; in assay [4] it was 37.3 µM; in [5], 98.6 µM; in assay [6] it was 52.9 µM. Further, the TGI came out at 59.5 µM in assay [7]; 53.2 µM in [8]; 29.2 µM in [9]; 69.2 µM in assay [10]; 44.8 µM in [11]; 34.3 µM in assay [12].
